Experimental data: patent US4018895A, “Aryloxyphenylpropylamines in treating depression” (Eli Lilly and Company, priority 1975, dated 1977)
Read-outs that look alike come from different tables or passages of the source.

Columns and labels:
brain serotonin = experiment: Prevention of brain serotonin depletion caused by 4-chloroamphetamine; type: in vivo; conditions: rats injected with 4-chloroamphetamine; drug 15 mg./kg. intraperitoneally; 4 hours later
Method: Following this injection, the protecting drug was injected at a dose of 15 mg./kg. of rat-weight intraperitoneally and determinations of brain serotonin levels were carried out 4 hours later.

[1] = system: QRS complex of the electrocardiogram; experiment: Electrocardiogram in anesthetized cats after intravenous injection; conditions: in words
[2] = system: response rates of pigeons; experiment: Operant behavior, fixed-ratio, fixed interval schedule; type: in vivo
Text: In manifesting their psychotropic action, the compounds of this invention also affect the behavior of animals trained in a variety of operant behavior schedules. Again, the activity of compounds of this invention in this type of test parallels that of known antidepressant drugs, particularly desmethylimipramine. […] With pigeons trained under an adjusting ratio schedule, the drugs of this invention affect behavior in the same way as does the marketed antidepressant, desmethylimipramine (DMI). […] The above results are consistent with antidepressant action.

[3] = system: hypothermia induced by the injection of apomorphine; experiment: Apomorphine hypothermia antagonism test; type: in vivo, mice; conditions: for Reduction of apomorphine hypothermia: 10 mg./kg. dose, measured 60 minutes after injection of the apomorphine
Method: The apomorphine hypothermia antagonism test is carried out as follows: mice are injected with a dose of apomorphine known to reduce body temperature approximately 4° C. […] The degree of antagonism is expressed as a percent reduction (as compared with controls) of the temperature decrease produced by the injection of the apomorphine. The reserpine hypothermia reversal test is carried out as follows: groups of mice are injected with reserpine and 16.5 hours later are injected intraperitoneally with graded doses of the drug, a different dose level being given to each group of mice. Temperatures are measured at 1 hour after injection of the drug under test and again the effectiveness of the drug is expressed as a percentage decrease in the hypothermia induced by the injection of reserpine as compared with the control group. In the tablets which follow, Table 4 gives the results in the apomorphine antagonism and reserpine reversal hypothermia tests for the secondary amines of this invention. In the table, the first column gives the substituent attached to the oxygen atom at the 3 position of the propylamine chain; columns 2 to 4 the percent antagonism against apomorphine hypothermia at dose levels of 0.3, 1 and 3 mg./kg. and columns 5-7 the percent reversal of reserpine hypothermia at the same dose levels.

[4] = system: hypothermia induced by the injection of reserpine; experiment: Reserpine hypothermia reversal test; type: in vivo, mice; conditions: for inhibition in vivo at 1 mg/kg / inhibition in vivo at 3 mg/kg / inhibition in vivo at 10 mg/kg / inhibition in vivo at 0.3 mg/kg: Mus musculus, ip, 1 h, Post-60 min., mice, read-out: Percent Antagonism Reserpine; for inhibition in vivo at 1 mg/kg: 1 mg./kg. intraperitoneally; for inhibition in vivo at 3 mg/kg: 3 mg./kg. intraperitoneally; for inhibition in vivo at 10 mg/kg: 10 mg./kg. intraperitoneally; for inhibition in vivo at 0.3 mg/kg: .3 mg./kg. intraperitoneally
Method: The apomorphine hypothermia antagonism test is carried out as follows: mice are injected with a dose of apomorphine known to reduce body temperature approximately 4° C. The compound under test is injected 1/2 hour before the injection of the apomorphine and the temperatures measured 1/2 hour after injection. The degree of antagonism is expressed as a percent reduction (as compared with controls) of the temperature decrease produced by the injection of the apomorphine. The reserpine hypothermia reversal test is carried out as follows: groups of mice are injected with reserpine and 16.5 hours later are injected intraperitoneally with graded doses of the drug, a different dose level being given to each group of mice. Temperatures are measured at 1 hour after injection of the drug under test and again the effectiveness of the drug is expressed as a percentage decrease in the hypothermia induced by the injection of reserpine as compared with the control group. In the tablets which follow, Table 4 gives the results in the apomorphine antagonism and reserpine reversal hypothermia tests for the secondary amines of this invention. In the table, the first column gives the substituent attached to the oxygen atom at the 3 position of the propylamine chain; columns 2 to 4 the percent antagonism against apomorphine hypothermia at dose levels of 0.3, 1 and 3 mg./kg. and columns 5-7 the percent reversal of reserpine hypothermia at the same dose levels.

[5] = system: serotonin uptake by synaptosomes from rat brain; experiment: In vitro blockade of serotonin uptake by synaptosomes from rat brain; type: biochemical; conditions: serotonin 0.1 μM
Text: (§1) This blockade is shown both in vitro with radioactive labelled compounds to determine the amount of monoamine uptake by synaptosomes from rat brain, and in vivo by a variety of methods. Among the physiologically active monoamines whose uptake is blocked by the compounds of this invention are included serotonin, norepinephrine and dopamine (3,4-dihydroxyphenylethylamine). […] Tables 1 and 2 which follow set forth the results of some of the in vitro determinations of the blockage of monoamine uptake by the compounds of this invention. In the tables, column 1 gives the R substituent on the 3-phenylpropylamine and columns 2-4, the concentration in micrograms per ml. that blocks the uptake of a particular amine by 50 percent for the amines--norephinephrine, serotonin, and dopamine. At the head of each column is given the concentration of the particular monoamine used in the experiment.

[6] = system: norepinephrine uptake by synaptosomes from rat brain; experiment: In vitro blockade of norepinephrine uptake by synaptosomes from rat brain; type: biochemical; conditions: norepinephrine 0.48 μM
Text: as §1

[7] = system: dopamine uptake by synaptosomes from rat brain; experiment: In vitro blockade of dopamine uptake by synaptosomes from rat brain; type: biochemical; conditions: dopamine 0.2 μM
Text: as §1

[8] = Mus musculus, Table 4, secondary amines, 1 mg./kg., Pre-30 min., mice, read-out: Percent Antagonism Apomorphine
[9] = Mus musculus, Table 4, secondary amines, 3 mg./kg., Pre-30 min., mice, read-out: Percent Antagonism Apomorphine
[10] = Mus musculus, Table 5, dimethylamino compounds, 1 mg./kg., Pre-30 min., mice, read-out: Percent Antagonism Apomorphine
[11] = Mus musculus, Table 5, dimethylamino compounds, 3 mg./kg., Pre-30 min., mice, read-out: Percent Antagonism Apomorphine
[12] = Mus musculus, Table 5, dimethylamino compounds, 10 mg./kg., Pre-30 min., mice, read-out: Percent Antagonism Apomorphine
[13] = Table 5, dimethylamino compounds

SMILES	inhibition in vivo at 3 mg/kg [3, 11] [%]	inhibition in vivo at 10 mg/kg [3, 12] [%]	inhibition in vivo at 10 mg/kg [4, 13] [%]	Concentration that blocks 50% of amine uptake, Serotonin ([5]; Table 1, scaffold drawing 3)	Concentration that blocks 50% of amine uptake, Norepinephrine ([6]; Table 1, scaffold drawing 3)	Concentration that blocks 50% of amine uptake, Dopamine ([7]; Table 1, scaffold drawing 3)	inhibition in vivo at 1 mg/kg [4, 13] [%]	inhibition in vivo at 3 mg/kg [4, 13] [%]	also measured
CNCCC(Oc1ccc(C(F)(F)F)cc1)c1ccccc1 (centres unmarked) [p-trifluoromethylphenyl, N-methyl 3-(p-trifluoromethylphenoxy)-3-phenylpropylamine]									Brain serotonin level (brain serotonin): 0.69 ± .02 µg/g
COc1ccccc1OC(CCN)c1ccccc1 (centres unmarked) [3-(o-Methoxyphenoxy)-3-phenylpropylamine, 3-(o-methoxyphenoxy)-3-phenylpropylamine]									Effect on the electrocardiogram (widening of the QRS complex) [1]: affects the electrocardiogram similarly, but at far higher doses
CN(C)CCCN1c2ccccc2CCc2ccc(Cl)cc21 [chloroimipramine]									Brain serotonin level (brain serotonin): 0.45 ± .03 µg/g
CNCCC(Oc1ccccc1OC)c1ccccc1.Cl (centres unmarked) [o-anisyl, N-methyl 3-(o-methoxyphenoxy)-3-phenylpropylamine hydrochloride]									Persistence of the effect on response rates [2]: more than 24 hours; Reduction of apomorphine hypothermia [3]: 100%
CN(C)CCC=C1c2ccccc2CCc2ccccc21 [amitriptyline, reference compound]									Reduction of apomorphine hypothermia [3]: 100%; Activity in antagonism of apomorphine hypothermia ([3]; in words): active; Activity in reversal of reserpine hypothermia ([4]; in words): active; Effect on the electrocardiogram (widening of the QRS complex) [1]: causes a widening of the QRS complex of the electrocardiogram
CN(C)CCC(Oc1ccccc1C(F)(F)F)c1ccccc1.Cc1ccc(S(=O)(=O)O)cc1 (centres unmarked) [o-trifluoromethylphenyl, N,N-dimethyl 3-(o-trifluoromethylphenoxy)-3-phenylpropylamine p-toluene-sulfonate]	32	55	10	.16 mcq./ml.	70 mcq./ml.	> 100 mcq./ml.			inhibition in vivo at 1 mg/kg [3, 8]: 13%; inhibition in vivo at 3 mg/kg [3, 9]: 28%; inhibition in vivo at 1 mg/kg [3, 10]: 21%; inhibition in vivo at 1 mg/kg ([4]; Table 4, secondary amines): 9%; inhibition in vivo at 3 mg/kg ([4]; Table 4, secondary amines): 8%; Concentration that blocks 50% of amine uptake, Serotonin ([5]; Table 2, scaffold drawing 4): 2.5 µg/mL; Concentration that blocks 50% of amine uptake, Norepinephrine ([6]; Table 2, scaffold drawing 4): 6.0 µg/mL; Concentration that blocks 50% of amine uptake, Dopamine ([7]; Table 2, scaffold drawing 4): > 100 µg/mL
CN(C)CCC(Oc1ccccc1)c1ccccc1 (centres unmarked) [phenyl]	3	54	49	.6 mcq./ml.	1 mcq./ml.	.3 mcq./ml.	20	20	
CNCCC(Oc1cccc(OC)c1)c1ccccc1.O=C(O)C(=O)O (centres unmarked) [m-anisyl, N-methyl 3-phenyl-3-(m-methoxyphenoxy)propylamine oxalate]	-7	-5	5				-1	6	inhibition in vivo at 1 mg/kg [3, 8]: 15%; inhibition in vivo at 3 mg/kg [3, 9]: 71%; inhibition in vivo at 0.3 mg/kg ([3]; Mus musculus, Table 4, secondary amines, .3 mg./kg., Pre-30 min., mice, read-out: Percent Antagonism Apomorphine): 15%; inhibition in vivo at 1 mg/kg [3, 10]: -12%; inhibition in vivo at 1 mg/kg ([4]; Table 4, secondary amines): 21%; inhibition in vivo at 3 mg/kg ([4]; Table 4, secondary amines): 21%; inhibition in vivo at 0.3 mg/kg ([4]; Table 4, secondary amines): 8%; Concentration that blocks 50% of amine uptake, Serotonin ([5]; Table 2, scaffold drawing 4): 4.5 µg/mL; Concentration that blocks 50% of amine uptake, Norepinephrine ([6]; Table 2, scaffold drawing 4): .15 µg/mL; Concentration that blocks 50% of amine uptake, Dopamine ([7]; Table 2, scaffold drawing 4): .45 µg/mL
CN(C)CCC(Oc1ccc(F)cc1F)c1ccccc1 (centres unmarked) [2,4-difluorophenyl]			30	.3 mcq./ml.	.2 mcq./ml.	10 mcq./ml.	11	12	Percent Antagonism Apomorphine ([3]; Table 4, secondary amines, 1 mg./kg., Pre-30 min., mice): 53%; Percent Antagonism Apomorphine ([3]; Table 4, secondary amines, 3 mg./kg., Pre-30 min., mice): 64%; Percent Antagonism Apomorphine ([3]; Table 4, secondary amines, .3 mg./kg., Pre-30 min., mice): 20%; Percent Antagonism Apomorphine ([3]; Table 5, dimethylamino compounds, 1 mg./kg., Pre-30 min., mice): 26%; Percent Antagonism Apomorphine ([3]; Table 5, dimethylamino compounds, 3 mg./kg., Pre-30 min., mice): 55%; Percent Antagonism Apomorphine ([3]; Table 5, dimethylamino compounds, 10 mg./kg., Pre-30 min., mice): 98%; inhibition in vivo at 1 mg/kg ([4]; Table 4, secondary amines): 17%; inhibition in vivo at 3 mg/kg ([4]; Table 4, secondary amines): 27%; inhibition in vivo at 0.3 mg/kg ([4]; Table 4, secondary amines): 13%; inhibition in vivo at 0.3 mg/kg [4, 13]: 23%; Concentration that blocks 50% of amine uptake, Serotonin ([5]; Table 2, scaffold drawing 4): 4.5 µg/mL; Concentration that blocks 50% of amine uptake, Norepinephrine ([6]; Table 2, scaffold drawing 4): > 100 µg/mL; Concentration that blocks 50% of amine uptake, Dopamine ([7]; Table 2, scaffold drawing 4): > 100 µg/mL
CCc1ccccc1OC(CCN(C)C)c1ccccc1.O=C(O)C(=O)O (centres unmarked) [o-ethylphenyl, N,N-dimethyl 3-(o-ethylphenoxy)-3-phenylpropylamine oxalate]	20	74	35	3.5 mcq./ml.	> 100 mcq./ml.	> 100 mcq./ml.	17	13	
CCOc1ccccc1OC(CCN(C)C)c1ccccc1.O=C(O)C(=O)O (centres unmarked) [o-phenetyl, N,N-dimethyl 3-(o-ethoxyphenoxy)-3-phenylpropylamine oxalate]	13	76	40	6 mcq./ml.	3 mcq./ml.	> 100 mcq./ml.		16	
